Where no end group is shown, it is not given here.
Key:
CaM [1] = molecular target: T1, CaM (Rattus norvegicus, UniProt P0DP29); assay: Isothermal titration calorimetry of MBP peptide binding to CaM; set-up: species or system vertebrate
T1 construct: made in house; host or cells: E. coli Rosetta (DE3)
Description: The peptide was dissolved in 50 mM HEPES pH 7.5, 20 mM CaCl2 and stored at -20°C. […] Native MBP protein isolated using the chloroform extraction method from post-mortem human brain was obtained from FermLab (Turku, Finland).
The samples for the experiment were extensively dialysed against 50 mM HEPES pH 7.5, 20 mM CaCl2 and degassed in an ultrasonic water bath. […] The first injection of 2 μl was followed by 19 15-μl injections of the peptide. The experiment was carried out at +25, +30, +35, and +40°C. The dilution heat was measured by titrating the buffer with the 1 mM peptide solution. […] The raw data were fitted by non-linear least squares minimisation with models for both a single site and four binding sites (see Results), using the Origin version 5.0 software (MicroCal).

CaM [2] = molecular target: T1, CaM; assay: Surface plasmon resonance, peptide over immobilised CaM; format: binding, vertebrate
Description: SPR assays were performed with a Biacore 3000 instrument (Biacore AB, Uppsala, Sweden). […] Binding of the peptide was tested in 10 mM HEPES pH 7.5, 150 mM NaCl, 4 mM CaCl2 containing 0.005% P-20 surfactant (Biacore AB), at a flow rate of 30 μl/min. Various concentrations of the peptide (2.5–200 μM) were injected in duplicate over both of the flow cells for 3 min, and a 6-min dissociation phase followed each injection. The surfaces were regenerated with a 20-s injection of 10 mM EDTA and another 10-s injection of 20 mM NaOH at a flow rate of 30 μl/min prior to the next injection cycle. The BIAevaluation software version 3.1 (Biacore AB) was used to analyse the data. […] Furthermore, a sensorgram of the injection of buffer alone was subtracted from the data. The data were analysed using the various interaction models available in the software, including the mass transfer model. The only model giving a reasonable fit to the data was the conformational change model (see Results).
A 20-μM solution of the peptide in the running buffer was injected over the flow cells of the CaM-coated sensor chip at a flow rate of 30 μl/min, using different injection times (1, 3, and 20 min). Each injection was followed by a 15-min dissociation time. The surface was regenerated and the data were treated as above.

CaM [3] = molecular target: T1, CaM; assay: Far-UV circular dichroism, k2d secondary structure deconvolution; format: physicochemical, vertebrate; conditions: k2d deconvolution of CD spectrum, +20°C, 10 mM HEPES pH 7.5, 150 mM NaCl, 4 mM CaCl2; CaM 0.050 mg/ml, peptide 0.030 mg/ml
Description: The spectra were corrected by subtracting the spectrum of a buffer sample (10 mM HEPES pH 7.5, 150 mM NaCl, 4 mM CaCl2). Noise reduction was applied to smooth the data with the Jasco software. The spectra are presented as mean residue ellipticity (θ), calculated by using the molar concentration of peptide or protein and multiplying by the appropriate number of peptide bonds. […] Secondary structure contents of the samples were estimated with the program […] [26].

CaM [4] = molecular target: T1, CaM; assay: Size exclusion chromatography of CaM with and without MBP peptide; format: binding, vertebrate; conditions: Superdex 75, free CaM
Description: Gel filtration chromatography with the ÄKTApurifier system (Pharmacia Biotech) was used to investigate the difference in the behaviour of CaM in the presence and absence of the MBP peptide. A Superdex 75 HR 10/30 column (Amersham Pharmacia Biotech) was equilibrated with 50 mM HEPES buffer pH 7.5, 150 mM NaCl, 4 mM CaCl2. The experiments were run at a flow rate of 0.5 ml/min, the injection volumes were 250 μl, the concentration of CaM was 0.8 mM, and the concentration of the peptide was 4 mM.

CaM [5] = assay: Affinity chromatography of human brain MBP on CaM-sepharose; format: binding
Description: Calcium-dependent affinity chromatography of human MBP on CaM-sepharose (GE Healthcare) was carried out as follows: 200 μg of lyophilized human brain MBP were dissolved in 50 mM HEPES pH 7.5, 150 mM NaCl, 2 mM CaCl2. The same buffer that was used to equilibrate 100 μl of the CaM-sepharose matrix. The sample was mixed with the matrix and washed with 5 ml of the above buffer. Elution was done with 1.4 ml of 50 mM HEPES pH 7.5, 150 mM NaCl, 2 mM EGTA. The fractions were applied on a 18% SDS-PAGE gel. To detect which isoforms were bound to CaM-sepharose, fractions 2 (wash) and 7 (EGTA elution) were purified with Vivapure® C18 Micro spin columns prior to analysis by mass spectrometry. MALDI-ToF mass spectrometry was performed with a Voyager-DE STR Biospectrometry Workstation (Applied Biosystems). 1 μl of the protein sample was spotted on sinapinic acid matrix.

Work on HKGFKGVDAQGTLSKIFKL [MBP peptide] yielded a Kd (CaM [1]) of 25.9 µM, a Kd (CaM [1]; 25°C (298.15 K), fit to the specific binding site only (one site, peaks 2–7), 1.0 mM peptide into 0.10 mM CaM, 50 mM HEPES pH 7.5, 20 mM CaCl2) of 3.4 µM and a Kd (CaM [1]; 30°C (303.15 K), fit to the specific binding site only (one site, peaks 2–7), 1.0 mM peptide into 0.10 mM CaM, 50 mM HEPES pH 7.5, 20 mM CaCl2) of 2.3 µM. For the same substance, the Kd (CaM [1]; 35°C (308.15 K), fit to the specific binding site only (one site, peaks 2–7), 1.0 mM peptide into 0.10 mM CaM, 50 mM HEPES pH 7.5, 20 mM CaCl2) was 1.9 µM, the Kd in words (CaM [1]; ITC, different temperatures) was “low μM range” and the Kd (CaM [2]) was 58 µM.
In the case of calmodulin [CaM], the Random coil content (CaM [3]) is reported as 0.12, the α-Helix content (CaM [3]) is reported as 0.88 and the β-Sheet content (CaM [3]) is reported as 0. The “apparent molecular weight in gel filtration” value (CaM [4]) was “approximately 30 kDa”.
For “myelin basic protein (HKGFKGVDAQGTLSKIFKL) [MBP, Native MBP protein isolated using the chloroform extraction method from post-mortem human brain; 17.2- and 18.5-kDa isoforms]”, the “binding to CaM-sepharose in presence of calcium” value (CaM [5]; 50 mM HEPES pH 7.5, 150 mM NaCl, 2 mM CaCl2) was “retained in the affinity matrix”, the “release from CaM-sepharose by EGTA” value (CaM [5]; 50 mM HEPES pH 7.5, 150 mM NaCl, 2 mM EGTA) was “released” and the “MBP isoforms in EGTA eluate” value (CaM [5]; MALDI-ToF mass spectrometry) was 17.2 and 18.5 kDa, were both present in the EGTA eluate.

Source: publication PMC2288786 (BMC Structural Biology, 2008)
